{"source": "paper PMC10010643", "about": "(Cancer Chemotherapy and Pharmacology, 2023)", "origin": "cited, not measured here", "tested_on": "liver fibrosis", "design": "method as in PMID 36154172", "details": "CCl4-induced; cited from earlier work", "data": [{"molecule": "OC[C@H]1O[C@H](Sc2cncc(Br)c2)[C@H](O)[C@@H](n2cc(-c3cc(F)c(F)c(F)c3)nn2)[C@H]1O", "note": "[GB1211]", "values": [{"measurement": "Fibrosis in vivo, liver", "result": "reducing fibrosis"}]}]}
